{"source": "patent US12606521B2", "about": "“Methods of treating cancer” (Institute For Cancer Research, priority 2020, dated 2026)", "origin": "cited, not measured here", "tested_on": "cancer cells", "conditions": "combination with decitabine", "data": [{"smiles": "Cc1cc(C(C#N)c2ccc(Cl)cc2)c(Cl)cc1NC(=O)c1cc(I)cc(I)c1O", "note": "(stereo not shown) [closantel]", "values": [{"measurement": "Interaction with decitabine in killing cancer cells", "value": "synergizes with decitabine"}]}]}
